Test results reported in PubChem BioAssay AID2060512 (Molecular Pharmacology Branch, DTP, NCI, 2025).

Tested on: 186277-243-T-J2-PDC complex spheroid viability
Experiment: Anticancer human tumor 186277-243-T-J2-PDC patient-derived colon adenocarcinoma cell line growth inhibition [GQUAD]
Details: for IC50: curve of first compound; for viability, T/C: stronger effect = lower value
Procedure, shortened: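 Tumor cells were grown as complex spheroids with HUVEC endothelial cells and mesenchymal stem cells as stroma. G-quadruplex stabilizers were combined with targeted agents over half-log dilutions from near the clinical Cmax, or from 10 microM.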

[1] = second compound 0.0316 µM, first compound 0.0316 µM
[2] = second compound 0.0316 µM, first compound 0.1 µM
[3] = second compound 0.0316 µM, first compound 0.316 µM
[4] = second compound 0.0316 µM, first compound 1 µM
[5] = second compound 0.0316 µM, first compound 3.16 µM
[6] = second compound 0.0316 µM, first compound 10 µM
[7] = second compound 0.1 µM, first compound 0.0316 µM
[8] = second compound 0.1 µM, first compound 0.1 µM
[9] = second compound 0.1 µM, first compound 0.316 µM
[10] = second compound 0.1 µM, first compound 1 µM
[11] = second compound 0.1 µM, first compound 3.16 µM
[12] = second compound 0.1 µM, first compound 10 µM
[13] = second compound 0.316 µM, first compound 0.0316 µM
[14] = second compound 0.316 µM, first compound 0.1 µM
[15] = second compound 0.316 µM, first compound 0.316 µM
[16] = second compound 0.316 µM, first compound 1 µM
[17] = second compound 0.316 µM, first compound 3.16 µM
[18] = second compound 0.316 µM, first compound 10 µM
[19] = second compound 1 µM, first compound 0.0316 µM
[20] = second compound 1 µM, first compound 0.1 µM
[21] = second compound 1 µM, first compound 0.316 µM
[22] = second compound 1 µM, first compound 1 µM
[23] = second compound 1 µM, first compound 3.16 µM
[24] = second compound 1 µM, first compound 10 µM
[25] = second compound 3.16 µM, first compound 0.0316 µM
[26] = second compound 3.16 µM, first compound 0.1 µM
[27] = second compound 3.16 µM, first compound 0.316 µM
[28] = second compound 3.16 µM, first compound 1 µM
[29] = second compound 3.16 µM, first compound 3.16 µM
[30] = second compound 3.16 µM, first compound 10 µM
[31] = second compound 10 µM, first compound 0.0316 µM
[32] = second compound 10 µM, first compound 0.1 µM
[33] = second compound 10 µM, first compound 0.316 µM
[34] = second compound 10 µM, first compound 1 µM
[35] = second compound 10 µM, first compound 3.16 µM
[36] = second compound 10 µM, first compound 10 µM
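Note: spheroids exposed to drugs for 7 days.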
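Throughout, for viability, T/C: 100% = DMSO vehicle control viability.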

## COc1cccc2c1C(=O)c1c(O)c3c(c(O)c1C2=O)CC(O)(C(=O)CO)CC3OC1CC(N)C(O)C(C)O1 (stereo unspecified) + Cc1[nH]c2ccc(F)cc2c1-c1nc2c3cccnc3c3ncccc3c2[nH]1
Second compound 0.0316 µM
  IC50: 696 nM
Second compound 0.1 µM
  IC50: 511 nM
Second compound 0.316 µM
  IC50: 686 nM
Second compound 1 µM
  IC50: 674 nM
Second compound 3.16 µM
  IC50: 623 nM
Second compound 10 µM
  IC50: 667 nM
[1]
  viability, T/C: 104%
[2]
  viability, T/C: 99.2%
[3]
  viability, T/C: 95.9%
[4]
  viability, T/C: 28.9%
[5]
  viability, T/C: 5.65%
[6]
  viability, T/C: 0.19%
[7]
  viability, T/C: 117%
[8]
  viability, T/C: 88.9%
[9]
  viability, T/C: 70.5%
[10]
  viability, T/C: 29.5%
[11]
  viability, T/C: 0.54%
[12]
  viability, T/C: 0.13%
[13]
  viability, T/C: 96.1%
[14]
  viability, T/C: 116%
[15]
  viability, T/C: 81.4%
[16]
  viability, T/C: 34.9%
[17]
  viability, T/C: 0.6%
[18]
  viability, T/C: 0.26%
[19]
  viability, T/C: 104%
[20]
  viability, T/C: 96.3%
[21]
  viability, T/C: 85.5%
[22]
  viability, T/C: 32%
[23]
  viability, T/C: 0.77%
[24]
  viability, T/C: 0.15%
[25]
  viability, T/C: 84.7%
[26]
  viability, T/C: 92.1%
[27]
  viability, T/C: 75%
[28]
  viability, T/C: 32.4%
[29]
  viability, T/C: 1.37%
[30]
  viability, T/C: 0.86%
[31]
  viability, T/C: 90.4%
[32]
  viability, T/C: 98%
[33]
  viability, T/C: 81.5%
[34]
  viability, T/C: 32.8%
[35]
  viability, T/C: 1.17%
[36]
  viability, T/C: 0.68%

## CC[C@@]1(O)C(=O)OCc2c1cc1n(c2=O)Cc2cc3c(CN(C)C)c(O)ccc3nc2-1 + Cc1cnc(CNC(=O)c2c(=O)c3ccc(N4CCCN(C)CC4)nc3n3c2sc2ccccc23)cn1
Second compound 0.0316 µM
  IC50: > 316 nM
Second compound 0.1 µM
  IC50: 263 nM
Second compound 0.316 µM
  IC50: 176 nM
Second compound 1 µM
  IC50: < 0.999 nM
Second compound 3.16 µM
  IC50: < 0.999 nM
Second compound 10 µM
  IC50: < 0.999 nM
Second compound 0.0316 µM, first compound 0.000999 µM
  viability, T/C: 95.2%
Second compound 0.0316 µM, first compound 0.00316 µM
  viability, T/C: 85.6%
Second compound 0.0316 µM, first compound 0.00999 µM
  viability, T/C: 82.4%
[1]
  viability, T/C: 77.1%
Second compound 0.0316 µM, first compound 0.0999 µM
  viability, T/C: 64.4%
[3]
  viability, T/C: 52.8%
Second compound 0.1 µM, first compound 0.000999 µM
  viability, T/C: 79.6%
Second compound 0.1 µM, first compound 0.00316 µM
  viability, T/C: 74.4%
Second compound 0.1 µM, first compound 0.00999 µM
  viability, T/C: 87.5%
[7]
  viability, T/C: 60.9%
Second compound 0.1 µM, first compound 0.0999 µM
  viability, T/C: 66.6%
[9]
  viability, T/C: 47.1%
Second compound 0.316 µM, first compound 0.000999 µM
  viability, T/C: 68.1%
Second compound 0.316 µM, first compound 0.00316 µM
  viability, T/C: 56.5%
Second compound 0.316 µM, first compound 0.00999 µM
  viability, T/C: 71.3%
[13]
  viability, T/C: 70.7%
Second compound 0.316 µM, first compound 0.0999 µM
  viability, T/C: 62%
[15]
  viability, T/C: 36.6%
Second compound 1 µM, first compound 0.000999 µM
  viability, T/C: 47.9%
Second compound 1 µM, first compound 0.00316 µM
  viability, T/C: 38.1%
Second compound 1 µM, first compound 0.00999 µM
  viability, T/C: 49.7%
[19]
  viability, T/C: 50.1%
Second compound 1 µM, first compound 0.0999 µM
  viability, T/C: 52.2%
[21]
  viability, T/C: 38.2%
Second compound 3.16 µM, first compound 0.000999 µM
  viability, T/C: 49.6%
Second compound 3.16 µM, first compound 0.00316 µM
  viability, T/C: 44.2%
Second compound 3.16 µM, first compound 0.00999 µM
  viability, T/C: 46.7%
[25]
  viability, T/C: 40.7%
Second compound 3.16 µM, first compound 0.0999 µM
  viability, T/C: 46.2%
[27]
  viability, T/C: 27.7%
Second compound 10 µM, first compound 0.000999 µM
  viability, T/C: 39.6%
Second compound 10 µM, first compound 0.00316 µM
  viability, T/C: 37.4%
Second compound 10 µM, first compound 0.00999 µM
  viability, T/C: 47.1%
[31]
  viability, T/C: 41.8%
Second compound 10 µM, first compound 0.0999 µM
  viability, T/C: 41.6%
[33]
  viability, T/C: 36.4%

## O=c1[nH]cc(F)c(=O)[nH]1 + CN(C)c1ccc(Nc2c3ccc(NC(=O)CCN4CCCC4)cc3nc3cc(NC(=O)CCN4CCCC4)ccc23)cc1
Second compound 0.0316 µM
  IC50: > 10000 nM
Second compound 0.1 µM
  IC50: > 10000 nM
Second compound 0.316 µM
  IC50: > 10000 nM
Second compound 1 µM
  IC50: 7500 nM
Second compound 3.16 µM
  IC50: 6320 nM
Second compound 10 µM
  IC50: 7040 nM
[1]
  viability, T/C: 99%
[2]
  viability, T/C: 97.1%
[3]
  viability, T/C: 89%
[4]
  viability, T/C: 98.8%
[5]
  viability, T/C: 68.8%
[6]
  viability, T/C: 50.8%
[7]
  viability, T/C: 98.9%
[8]
  viability, T/C: 87%
[9]
  viability, T/C: 102%
[10]
  viability, T/C: 102%
[11]
  viability, T/C: 67.5%
[12]
  viability, T/C: 54.2%
[13]
  viability, T/C: 94.2%
[14]
  viability, T/C: 94.5%
[15]
  viability, T/C: 101%
[16]
  viability, T/C: 93.4%
[17]
  viability, T/C: 62.1%
[18]
  viability, T/C: 51.1%
[19]
  viability, T/C: 87.5%
[20]
  viability, T/C: 91.3%
[21]
  viability, T/C: 98.6%
[22]
  viability, T/C: 112%
[23]
  viability, T/C: 64.7%
[24]
  viability, T/C: 45.1%
[25]
  viability, T/C: 97.2%
[26]
  viability, T/C: 104%
[27]
  viability, T/C: 104%
[28]
  viability, T/C: 101%
[29]
  viability, T/C: 66.5%
[30]
  viability, T/C: 39.1%
[31]
  viability, T/C: 90.9%
[32]
  viability, T/C: 98.4%
[33]
  viability, T/C: 98.5%
[34]
  viability, T/C: 102%
[35]
  viability, T/C: 65.3%
[36]
  viability, T/C: 43.3%
